Measurements as given in patent publication US20120073988A1, “Sensor for Measurement of Hydrogen Sulfide” (priority 2004, published 2012).

How the values were obtained:
[1] = test system: enzyme in the blood vessels that is responsible for H2S production (rat aorta homogenate, VSMC, intact tail artery); test: Real-time H2S production in rat vascular samples supplied with L-cysteine and PLP; format: biochemical; details: added after L-cysteine and PLP; FIG. 6
Description: In general, the following biological samples are bathed in the potassium phosphate buffer (PBS) described above. The specific procedures are found in Doeller, J. E., Isbell, T. S., Benavides, G., Koenitzer, J., Patel, H., Patel, P. P., Lancaster, J. R. Jr., Darley-Usmar, V. M., and Kraus, D. W.; Polarographic measurement of hydrogen sulfide production and consumption by mammalian tissues; Anal. Biochem.; (2005) 341: 40-51, the contents of which are incorporated by reference herein.
FIG. 6 illustrates measurement of real-time H2S production in rat aorta homogenate (Aorta homogenate), cultured rat vascular smooth muscle cells (VSMC) and living rat tail artery (Intact Tail Artery). After supplying each of the samples with the amino acid L-cysteine and the vitamin pyridoxal […] (PLP), both substrate and cofactor respectively, for the enzyme in the blood vessels that is responsible for H2S production, a rise in solution H2S concentration is observed.

[2] = H2S→H++HS−; HS−→S2−+H+; cited from earlier work
[3] = test system: mitochondria isolated from marine mussel gills; test: O2 consumption of a mitochondria suspension isolated from mussel gills in a closed chamber; set-up: species or system ribbed mussel Geukensia demissa; details: injections of 12.5 μM sulfide, FIG. 5A
Description: The cellular organelle responsible for O2 consumption in biological cells is the mitochondrion. […] Such rapid kinetic events could not be adequately followed with standard colorimetric methods for H2S determination.
Mitochondria were isolated using the isolation procedure referenced in Parrino, V., D. W. Kraus and J. E. Doeller; ATP production from the oxidation of sulfide in gill mitochondria of the ribbed mussel Geukensia demissa; J. Exp. Biol.; (2000) 203:2209-2218, the contents of which are incorporated by reference herein. The mitochondria were suspended in an aqueous salt- and sucrose-containing buffer described in the Parrino reference.
In FIG. 5A two traces show the real-time concentrations of H2S and O2 in a closed chamber containing a mitochondria suspension isolated from mussel gills. The lower trace is H2S concentration and the upper trace is O2 concentration from a different sensor. […] As the chamber O2 is exhausted the sulfide is consumed much more slowly. In FIG. 5B the derivatives (H2S as lower trace and O2 as upper trace) of the traces in FIG. 5A are shown.

isolated rat aorta = test: Vessel tension organ bath with isolated rat aorta segments; details: aorta pre-contracted with 100 nM phenylephrine; FIG. 7
Description: Individual segments, 4 mm long and 1.5 mm in diameter, are tethered between the bath floor and a sensitive force transducer above the bath in order to measure any vasorelaxation as a decrease in tension. An electrochemical H2S sensor (PHSS) is also immersed in the bath to simultaneously report the H2S concentration. The aorta vessels are first contracted by adding 100 nM phenylephrine, PE, to the bath to stimulate physiological vessel tension. […] Measurement of such an acute response of blood vessels to H2S concentration is only possible with the hydrogen sulfide detection apparatus comprising the PHSS.

N#CC[C@H](N)C(=O)O [BCA, beta-cyanoalanine]
effect on H2S production [1]: limit any further H2S production

S [H2S, Hydrogen sulfide]
pKa [2]: 6.88

S [HS^−]
pKa [2]: 14.15

[Na+].[Na+].[S-2] [Na2S]
effect on O2 consumption [3]: stimulate O2 consumption | vessel tension (vasorelaxation) (isolated rat aorta): immediate vasorelaxation event
